This is an account of results in ChEMBL document CHEMBL1201862, “PubChem BioAssay data set” (2004).

Some test systems named below: A549; BT-549; DU-145; HCT-15; HL-60; IGROV-1; KM12; MDA-MB-231; MDA-MB-435; NCI-H226; OVCAR-5; SF-268; SK-MEL-28; SK-MEL-5; SN12C; TK-10; U-251; A498; Malme-3M.
What all share (experiment): inhibition of tumour cell growth, NCI panel, 48 h

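Protocol summary: plate cells (96-well), add compound at 5 concentrations, incubate 48 h, interpolate endpoints linearly. GI50 is the concentration that inhibits growth by half.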 Activity calls are given as the source filed them. No stated cut-off is given here; in the data, active = GI50 up to about 1.1 µM and inactive = higher.

On to `CS(=O)(=O)c1nc(-c2cc3c(c(S(C)(=O)=O)n2)CCCC3)cc2c1CCCCC2`, for which the GI50 in the assay with A549 was > 100 µM (inactive); in the assay on BT-549, > 100 µM (inactive); in the assay on DU-145, > 100 µM (inactive); in the assay with HCT-15 it was greater than 100 µM; in the assay on HL-60, > 100 µM (inactive); in the assay on IGROV-1, 11.2 µM (inactive). For the same molecule, the GI50 in the assay on KM12 is > 100 µM (inactive); in the assay on MDA-MB-231, 65.5 µM (inactive); with MDA-MB-435, > 100 µM (inactive); in the assay on NCI-H226 it was > 100 µM (inactive); with OVCAR-5, > 100 µM (inactive); with SF-268, 16.8 µM (inactive). The GI50 in the assay on SK-MEL-28, with SK-MEL-5, in the assay on SN12C, in the assay with TK-10 and with U-251 was > 100 µM (inactive) each time.

Regarding `C/C(=N\NC(=S)N1CCN(C)CC1)c1nc2cccnc2[nH]1`, the GI50 in the assay with A498 is > 100 µM (inactive); with A549, > 100 µM (inactive); with BT-549 it was 22.4 µM (inactive); in the assay with HCT-15, greater than 100 µM; in the assay with HL-60, > 100 µM (inactive); with IGROV-1 it was > 100 µM (inactive). The GI50 in the assay with KM12, in the assay with MDA-MB-231, in the assay with MDA-MB-435, in the assay on Malme-3M, in the assay on NCI-H226 and in the assay on OVCAR-5 was > 100 µM (inactive) each time. Moreover, the GI50 is > 100 µM (inactive) in the assay with SF-268; > 100 µM (inactive) in the assay on SK-MEL-28; > 100 µM (inactive) with SK-MEL-5; > 100 µM (inactive) in the assay on SN12C; 54.7 µM (inactive) in the assay with TK-10; > 100 µM (inactive) in the assay with U-251.

Consider `COCN1C(=O)[C@@H]2CCCN2C(=O)c2cc(OC)c(Cc3ccccc3)cc21`, for which the GI50 in the assay with A498 was > 100 µM (inactive); in the assay on A549 it was 83.6 µM (inactive); in the assay on BT-549 it was 81.8 µM (inactive); with DU-145 it was > 100 µM (inactive); with HCT-15 it was greater than 100 µM; in the assay on IGROV-1, 62.7 µM (inactive). Also, the GI50 in the assay with KM12 is > 100 µM (inactive); in the assay on MDA-MB-231, 49.5 µM (inactive); in the assay with MDA-MB-435 it was 70.1 µM (inactive); in the assay on Malme-3M, > 100 µM (inactive); with OVCAR-5, > 100 µM (inactive); in the assay with SF-268, > 100 µM (inactive). For the same molecule, the GI50 was > 100 µM (inactive) with SK-MEL-28, > 100 µM (inactive) in the assay on SN12C, > 100 µM (inactive) in the assay with TK-10 and 94.6 µM (inactive) with U-251.

In the case of `COc1ccc(-[n+]2nc(S(=O)(=O)O)c(/C=C/c3ccc(N(C)C)cc3)cc2C#N)cc1`, the GI50 in the assay with A498 is > 100 µM (inactive); in the assay on A549, > 100 µM (inactive); with BT-549 it was > 100 µM (inactive); in the assay with DU-145, > 100 µM (inactive); with HCT-15, greater than 100 µM; in the assay with IGROV-1, > 100 µM (inactive). Moreover, the GI50 in the assay with KM12, in the assay with MDA-MB-231, in the assay on MDA-MB-435, in the assay with NCI-H226, in the assay with OVCAR-5 and in the assay on SF-268 was > 100 µM (inactive) each time. In addition, the GI50 in the assay with SK-MEL-28, with SK-MEL-5, in the assay with SN12C, in the assay with TK-10 and in the assay on U-251 was > 100 µM (inactive) throughout.

With `O=C1c2ccccc2-c2c1c(-c1cccc(Br)c1)nc1ccc3ccccc3c21`, the GI50 in the assay on A498 is > 100 µM (inactive); in the assay with A549, > 100 µM (inactive); in the assay with BT-549, > 100 µM (inactive); in the assay with DU-145, > 100 µM (inactive); in the assay on HCT-15, greater than 100 µM; with KM12, > 100 µM (inactive). Moreover, the GI50 with MDA-MB-231, with MDA-MB-435, in the assay with Malme-3M, in the assay on NCI-H226, with OVCAR-5 and with SF-268 was > 100 µM (inactive) throughout. Further, the GI50 with SK-MEL-28, in the assay with SN12C and with U-251 was > 100 µM (inactive) each time.

`[O-][S+](c1ccc(Cl)cc1)c1ccccc1C1=NCCN1` (stereo not drawn): the GI50 is > 100 µM (inactive) in the assay with A549; > 100 µM (inactive) with BT-549; > 100 µM (inactive) in the assay with DU-145; greater than 100 µM in the assay with HCT-15; > 100 µM (inactive) with HL-60; > 100 µM (inactive) in the assay with IGROV-1. Also, the GI50 in the assay on KM12, in the assay on MDA-MB-231, with MDA-MB-435, in the assay with Malme-3M, in the assay on NCI-H226 and in the assay on OVCAR-5 was > 100 µM (inactive) in each case. Moreover, the GI50 with SF-268, with SK-MEL-28, in the assay on SK-MEL-5, in the assay with SN12C, with TK-10 and in the assay on U-251 was > 100 µM (inactive) throughout.

For `c1ccc(CCNc2ccccn2)nc1`, the GI50 in the assay on A498 is > 100 µM (inactive); with A549 it was > 100 µM (inactive); with BT-549 it was > 100 µM (inactive); in the assay with DU-145 it was > 100 µM (inactive); in the assay on HCT-15, greater than 100 µM; in the assay with HL-60, > 100 µM (inactive). Moreover, the GI50 with IGROV-1, with KM12, in the assay on MDA-MB-231, in the assay on MDA-MB-435, with Malme-3M and with NCI-H226 was > 100 µM (inactive) in each case. Also, the GI50 in the assay on OVCAR-5, in the assay on SF-268, in the assay on SK-MEL-28, in the assay with SK-MEL-5, in the assay on SN12C and in the assay with TK-10 was > 100 µM (inactive) throughout. In the assay with U-251, the GI50 was > 100 µM (inactive).

For `COc1ccc(-c2nc(SCC(=O)N/N=C/c3ccc(O)c(OC)c3)[nH]c2-c2ccc(OC)cc2)cc1`, the GI50 is 18.8 µM (inactive) in the assay on A498; 34.9 µM (inactive) in the assay with A549; 22.1 µM (inactive) in the assay on BT-549; 39.8 µM (inactive) in the assay on DU-145; 24.2 µM in the assay on HCT-15; 11.2 µM (inactive) with HL-60. Moreover, the GI50 was 33.3 µM (inactive) in the assay on KM12; 24.7 µM (inactive) with MDA-MB-231; 32.4 µM (inactive) in the assay on MDA-MB-435; 37.8 µM (inactive) in the assay on Malme-3M; 27.8 µM (inactive) in the assay with OVCAR-5; 54.6 µM (inactive) in the assay on SF-268. For the same molecule, the GI50 in the assay on SK-MEL-28 is 28.4 µM (inactive); in the assay with SK-MEL-5, 17.7 µM (inactive); in the assay on SN12C it was 19.1 µM (inactive); with TK-10, 41 µM (inactive); in the assay with U-251 it was 19.7 µM (inactive).

Regarding `CCOC(=O)c1ccc2c(c1)Cc1cc([N+](=O)[O-])ccc1-2`, the GI50 is 28.4 µM (inactive) in the assay with A498; 33.7 µM (inactive) in the assay on A549; 30.1 µM (inactive) in the assay with BT-549; > 100 µM (inactive) in the assay on DU-145; 57.8 µM in the assay on HCT-15; 76.2 µM (inactive) in the assay on HL-60. Moreover, the GI50 in the assay on IGROV-1 was 10.6 µM (inactive); in the assay on KM12, 69.3 µM (inactive); in the assay on MDA-MB-231, 32.3 µM (inactive); in the assay on MDA-MB-435 it was 43.1 µM (inactive); in the assay with Malme-3M, > 100 µM (inactive); in the assay on NCI-H226, 17.8 µM (inactive). Also, the GI50 is 57.4 µM (inactive) in the assay with OVCAR-5; 24 µM (inactive) with SF-268; 43 µM (inactive) in the assay with SK-MEL-28; 17.3 µM (inactive) with SK-MEL-5; 89.3 µM (inactive) in the assay on SN12C; 24.4 µM (inactive) in the assay on TK-10. Moreover, the GI50 with U-251 is 39.4 µM (inactive).

As to `C/C=C1\C(=O)OC2CCN3CCC(COC(=O)C(C)(O)C(C)C1O)C23` (stereo not drawn), the GI50 with A498 is > 100 µM (inactive); with A549 it was > 100 µM (inactive); in the assay with BT-549, > 100 µM (inactive); with DU-145 it was > 100 µM (inactive); in the assay with HCT-15 it was greater than 100 µM; in the assay with HL-60, > 100 µM (inactive). Moreover, the GI50 with IGROV-1, in the assay with KM12, with MDA-MB-231, in the assay on MDA-MB-435, in the assay with Malme-3M and with NCI-H226 was > 100 µM (inactive) throughout. The GI50 in the assay on OVCAR-5, in the assay with SF-268, with SK-MEL-28, in the assay on SK-MEL-5, with SN12C and in the assay on TK-10 was > 100 µM (inactive) each time. For the same molecule, the GI50 in the assay with U-251 is > 100 µM (inactive).

Regarding `Cc1cn(CCCCCCC2=NCCCN2)c(=O)[nH]c1=O`, the GI50 is > 100 µM (inactive) with A498; > 100 µM (inactive) in the assay on A549; > 100 µM (inactive) in the assay on BT-549; > 100 µM (inactive) with DU-145; greater than 100 µM in the assay with HCT-15; > 100 µM (inactive) in the assay with IGROV-1. The GI50 with KM12, with MDA-MB-231, with MDA-MB-435, in the assay with Malme-3M, with NCI-H226 and with OVCAR-5 was > 100 µM (inactive) in each case. For the same molecule, the GI50 with SF-268, in the assay with SK-MEL-28, in the assay with SK-MEL-5, in the assay on SN12C, with TK-10 and in the assay on U-251 was > 100 µM (inactive) in each case.
